Measured values as given in patent US20050215548A1 (Cyclacel Limited, priority 2002, published 2005).
Like-named read-outs stand apart in the source and are kept apart here. Each block holds one molecule with its values, some of them ahead of it.

How the values were obtained:
SK-N-MC = test: 72-h MTT cytotoxicity assay, SK-N-MC; assay type: cell-based; conditions: Homo sapiens, Neuriepithelioma, read-out: Anti-proliferative activity, 72-h MTT IC50
Method: (§1) Representative bisarylsulfonamide compounds were tested on a panel of transformed and non-transformed human cell lines, using a standard 72-h MTT cytotoxicity assay [Haselsberger K et al, ibid].

HCT116 = test: 72-h MTT cytotoxicity assay, HCT116; assay type: cell-based; conditions: Homo sapiens, HCT-116, 72 h; HCT116, Colon carcinoma; read-out: Anti-proliferative activity, 72-h MTT IC50
Method: as §1

p53 = p53 reporter gene assay (U2OS-derived luciferase reporter cell line); conditions: for Fold induction of luciferase activity: compared to basal luciferase activity, 16-h time point, at concentration of maximal induction; for Concentration (test compound concentration at which the p53 induction was maximal): p53 reporter, U2OS-derived cell line
Method: A dual assay assessing both cell viability and p53 response was employed. A U2OS-derived cell line stably transfected with a p53 response element and a luciferase reporter gene was created. […] After seeding of cells into 96-well tissue culture plates, treatment with test compounds, and incubation for the desired duration, the cell proliferation reagent WST-1 (Roche Molecular Biochemicals) was used to determine cell viability. The Bright-Glo™ Luciferase Assay System (Promega) was used to measure luciferase activity. The data from the cell viability assay was used to normalise data from the luciferase assay.

Nci-H460 = test: 72-h MTT cytotoxicity assay, Nci-H460; assay type: cell-based; conditions: Homo sapiens, Nci-H460, Large cell lung carcinoma, read-out: Anti-proliferative activity, 72-h MTT IC50
Method: as §1

sarcoma cell lines = test: 72-h MTT panel, average sarcomas; assay type: cell-based; conditions: Homo sapiens, average over sarcoma cell lines, read-out: Anti-proliferative activity, 72-h MTT IC50, Average sarcomas
Method: as §1
(§2) This differential selectivity further supports the notion that the bisarylsulfonamides modulate cellular HDM2 function. It is known that HDM2 amplification is particularly common in soft tissue sarcomas and osteosarcomas [Momand J et al, ibid; Bartel F, Meye A, Wurl P, Kappler M, Bache M, Lautenschlager C, Grunbaum U, Schmidt H, Taubert H; Int. J. Cancer 2001; 95: 168-175].

HeLa = test: 72-h MTT cytotoxicity assay, HeLa; assay type: cell-based; conditions: Homo sapiens, Cervical carcinoma, read-out: Anti-proliferative activity, 72-h MTT IC50
Method: as §1

IMR90 = test: 72-h MTT cytotoxicity assay, IMR90; assay type: cell-based; conditions: Homo sapiens, IMR-90, 72 h; IMR90, Lung fibroblasts; read-out: Anti-proliferative activity, 72-h MTT IC50
Method: as §1

NaCat = test: 72-h MTT cytotoxicity assay, NaCat; assay type: cell-based; conditions: Keratinocyte, Human keratinocytes, read-out: Anti-proliferative activity, 72-h MTT IC50
Method: as §1

U2OS = test: 72-h MTT cytotoxicity assay, U2OS; assay type: cell-based; conditions: Homo sapiens, Osteosracoma, read-out: Anti-proliferative activity, 72-h MTT IC50
Method: as §1

HDM2 = target: T1, HDM2 (Homo sapiens, UniProt Q00987); test: Fluorescence polarisation competitive HDM2 binding assay
T1 construct: Recombinant HDM2 (1.5 μg per well) in TBS-BSA buffer
T1 sequence (Q00987 whole entry): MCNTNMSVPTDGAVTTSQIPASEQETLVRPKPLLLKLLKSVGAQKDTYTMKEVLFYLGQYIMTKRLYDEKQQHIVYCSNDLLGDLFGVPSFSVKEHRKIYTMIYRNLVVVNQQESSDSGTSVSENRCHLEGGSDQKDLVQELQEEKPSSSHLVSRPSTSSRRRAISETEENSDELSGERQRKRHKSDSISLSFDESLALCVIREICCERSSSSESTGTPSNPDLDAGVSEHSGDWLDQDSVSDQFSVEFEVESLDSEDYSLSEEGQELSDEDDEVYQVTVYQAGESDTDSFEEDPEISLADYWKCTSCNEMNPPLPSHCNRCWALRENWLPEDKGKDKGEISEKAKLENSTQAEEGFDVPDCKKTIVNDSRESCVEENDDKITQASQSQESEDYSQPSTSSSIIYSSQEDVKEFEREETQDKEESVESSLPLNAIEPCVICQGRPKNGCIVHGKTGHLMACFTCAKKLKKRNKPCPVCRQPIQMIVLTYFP
Outline: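 Recombinant HDM2 (1.5 μg/well) was preincubated 5 min at room temperature with serially diluted compound in 50 mM Tris pH 7.4, 150 mM NaCl, 0.1% BSA, 5% DMSO final. Fluorescein-labelled p53 peptide (0.2 μM) was then added for 45 min. Polarisation was read at 485/520 nm and IC50 derived from dose-response curves.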

[1] = tested on: non-transformed human cell lines; test: 72-h MTT panel, average non-transformed; assay type: cell-based; conditions: average over non-transformed cell lines, read-out: Anti-proliferative activity, 72-h MTT IC50, Average non-transformed
Method: as §1, §2

HS27 = test: 72-h MTT cytotoxicity assay, HS27; assay type: cell-based; conditions: Homo sapiens, HS27, Foreskin fibroblasts, read-out: Anti-proliferative activity, 72-h MTT IC50
Method: as §1

HT29 = test: 72-h MTT cytotoxicity assay, HT29; assay type: cell-based; conditions: Homo sapiens, HT-29, 72 h; HT29, Colon adenocarcinoma; read-out: Anti-proliferative activity, 72-h MTT IC50
Method: as §1

Lovo = test: 72-h MTT cytotoxicity assay, Lovo; assay type: cell-based; conditions: Homo sapiens, Colon adenocarcinoma, read-out: Anti-proliferative activity, 72-h MTT IC50
Method: as §1

SJSA-1 = test: 72-h MTT cytotoxicity assay, SJSA-1; assay type: cell-based; conditions: Homo sapiens
Method: (§3) The fluorescence polarisation competitive HDM2 binding assay described in Example 3 was used. Furthermore, the anti-proliferative potency of the compounds against three human tumour cell lines with different genetic make-up was also determined. […] The cell lines used were as follows: AGS, gastric adenocarcinoma, wild-type p53; H1299, large cell lung carcinoma, p53 null, low HDM2; SJSA-1, primitive multipotential bone sarcoma, wild-type p53, overexpressed HDM2.
as §1

A549 = test: 72-h MTT cytotoxicity assay, A549; assay type: cell-based; conditions: Homo sapiens, A549, Lung carcinoma, read-out: Anti-proliferative activity, 72-h MTT IC50
Method: as §1

H1299 = test: 72-h MTT cytotoxicity assay, H1299; assay type: cell-based; conditions: Homo sapiens
Method: as §3, §1

AGS = test: 72-h MTT cytotoxicity assay, AGS; assay type: cell-based; conditions: Homo sapiens
Outline: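 Cell-based anti-proliferative read-out. p53 and HDM2 status differ by line: AGS (gastric adenocarcinoma) wild-type p53; SJSA-1 (multipotential bone sarcoma) wild-type p53 plus HDM2 overexpression; H1299 (large cell lung carcinoma) p53 null, HDM2 low.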

DU145 = test: 72-h MTT cytotoxicity assay, DU145; assay type: cell-based; conditions: Homo sapiens, DU-145, 72 h; DU145, Prostate carcinoma; read-out: Anti-proliferative activity, 72-h MTT IC50
Method: as §1

MCF7 = test: 72-h MTT cytotoxicity assay, MCF7; assay type: cell-based; conditions: Homo sapiens, MCF7, Breast adenocarcinoma, read-out: Anti-proliferative activity, 72-h MTT IC50
Method: as §1

Messa = test: 72-h MTT cytotoxicity assay, Messa; assay type: cell-based; conditions: Homo sapiens, MES-SA, Uterus sarcoma, read-out: Anti-proliferative activity, 72-h MTT IC50
Method: as §1

Saos-2 = test: 72-h MTT cytotoxicity assay, Saos-2; assay type: cell-based; conditions: Homo sapiens, Saos-2, Osteosracoma, read-out: Anti-proliferative activity, 72-h MTT IC50
Method: as §1

Messa-Dx5 = test: 72-h MTT cytotoxicity assay, Messa-Dx5; assay type: cell-based; conditions: Homo sapiens, MES-SA/Dx5, 72 h; Messa-Dx5, Uterus sarcoma; read-out: Anti-proliferative activity, 72-h MTT IC50
Method: as §1

[2] = tested on: transformed human cell lines; test: 72-h MTT panel, average transformed; assay type: cell-based; conditions: average over transformed cell lines, read-out: Anti-proliferative activity, 72-h MTT IC50, Average transformed
Method: as §1, §2

carcinoma cell lines = test: 72-h MTT panel, average carcinomas; assay type: cell-based; conditions: Homo sapiens, average over carcinoma cell lines, read-out: Anti-proliferative activity, 72-h MTT IC50, Average carcinomas
Method: as §1, §2

WI38 = test: 72-h MTT cytotoxicity assay, WI38; assay type: cell-based; conditions: Homo sapiens, WI-38, 72 h; WI38, Lung fibroblasts; read-out: Anti-proliferative activity, 72-h MTT IC50
Method: as §1

SKUT-1 = test: 72-h MTT cytotoxicity assay, SKUT-1; assay type: cell-based; conditions: Homo sapiens, SK-UT-1, 72 h; SKUT-1, Uterus leiomyosarcoma; read-out: Anti-proliferative activity, 72-h MTT IC50
Method: as §1

[3] = tested on: E2F transcription factors; test: E2F reporter gene assay (A549-derived luciferase reporter cell line); assay type: cell-based; conditions: Homo sapiens; after 3-h treatment with test compounds; read-out: IC50 E2F reporter, Non-synchronised cells
Method: A similar system to the p53 reporter assay described above was used, with the exception that it was designed to be responsive to E2F transcription factors rather than p53. An A549-derived cell line stably transfected with an E2F response element and a luciferase reporter gene was created. The genetic expression cassette construct used was from Clontech (Mercury™ Cell Cycle Profiling System). Assays were carried out as described above.
Representative bisarylsulfonamides were tested in the E2F gene reporter assay described in Example 6.

[4] = tested on: AGS, H1299, MCF7 or SJSA1 cells; test: Cell morphology (cell rounding); assay type: cell-based, human; conditions: five times IC50
Text: Equal amounts of cell lysate were separated by SDS-PAGE and analysed by immunoblotting using the indicated antibodies. An estimation of the extent of cell rounding is indicated above each lane. The arrow indicates the position of a 85-kDa cleavage product of PARP, indicative of apoptosis. (B) The effect of compound 2 on the levels of the cell cycle proteins in AGS cells (wild-type 53). […] Equal amounts of cell lysate were separated by SDS-PAGE and analysed by immunoblotting using the indicated antibodies. An estimation of the extent of cell rounding is indicated above each lane. (C) The effect of negative control compound (refer Example 10), compound 2, cisplatin, and anisomycin on the levels of key proteins in MCF7 cells. […] Cisplatinum and anisomycin (a transcription inhibitor) treatments were with 50 μM or 37 μM, respectively. Cells were harvested at various time points; afterwards lysates were prepared and separated by SDS-PAGE and analysed by immunoblotting. The proteins detected are indicated. The extent of rounded or floating cells and the percentage viable cells were assessed. […] Equal amounts of cell lysate were separated by SDS-PAGE and analysed by immunoblotting using a range of antibodies. An estimation of the extent of cell rounding is indicated above each lane. […] SJSA1 cells were treated with 5 times [IC50] of compound 2 and collected at the indicated time points. Equal amounts of cell lysate were separated by SDS-PAGE and analysed by immunoblotting using a range of antibodies. An estimation of the extent of cell rounding is indicated above each lane.
Cells were treated with 5 times [IC50] of compound 2 and collected at various time points. The percentage of rounded cells was counted before cells were trypsinised and counted for cell viability using trypan blue.
Cells were lysed and equal amounts were analysed by SDS-polyacrylamide gel electrophoresis (SDS-PAGE) and immunoblotting. […] The reduction in E2F-1 levels correlated with reduction in E2F transcriptional activity as determined by an E2F-dependent luciferase reporter assay (refer Example 6).

[5] = fluorescence polarisation assay, Table 3, read-out: In vitro competitive HDM2 binding assay IC50
[6] = fluorescence polarisation format, Table 1, read-out: IC50 In vitro competitive HDM2 binding assay
[7] = NCI-H1299, 72-h MTT, Table 1, read-out: IC50 Anti-proliferative effect on cell line H 1299
[8] = 72-h MTT, Table 1, read-out: IC50 Anti-proliferative effect on cell line AGS

Fold induction of luciferase activity (p53): 32 fold
IC50 (sarcoma cell lines): 11.3 ± 3.7 µM
IC50 (HDM2; [5]): 15.4 ± 7.8 µM
IC50 (HDM2; [6]): 15.4 ± 7.8 µM
IC50 (carcinoma cell lines): 9.7 ± 4.7 µM
SMILES: CN(c1ccc(F)cc1)S(=O)(=O)c1cc([N+](=O)[O-])c(Cl)s1 [Compound 7]
IC50 (SK-N-MC): 3 µM
IC50 (HCT116): 12.2 µM
Concentration (test compound concentration at which the p53 induction was maximal) (p53): 9 µM
IC50 (Nci-H460): 9.6 µM
IC50 (HeLa): 13.7 µM
IC50 (IMR90): 41.8 µM
IC50 (NaCat): 12.9 µM
IC50 (U2OS): 8.8 µM
IC50 [1]: 44.6 ± 6.9 µM
IC50 (HS27): 39.2 µM
IC50 (HT29): 4.6 µM
IC50 (Lovo): 8.5 µM
IC50 (SJSA-1; 72 h, SJSA-1, Osteosracoma, Table 2, read-out: Anti-proliferative activity, 72-h MTT IC50): 17 µM
IC50 (SJSA-1; SJSA-1, 72-h MTT, Table 1, read-out: IC50 Anti-proliferative effect on cell line SJSA-4): 9.3 ± 2.7 µM
IC50 (A549): 19.3 µM
IC50 (H1299; NCI-H1299, 72 h, H1299, Large cell lung carcinoma, Table 2, read-out: Anti-proliferative activity, 72-h MTT IC50): 14 µM
IC50 (H1299; [7]): 12.9 ± 0.7 µM
IC50 (AGS; [8]): 7 ± 1.3 µM
IC50 (AGS; 72 h, Gastric adenocarcinoma, Table 2, read-out: Anti-proliferative activity, 72-h MTT IC50): 5 µM
IC50 (DU145): 9.1 µM
IC50 (MCF7): 11.2 µM
IC50 (Messa): 8.1 µM
IC50 (Saos-2): 13.3 µM
IC50 (Messa-Dx5): 7.6 µM
IC50 [2]: 10.2 ± 4.4 µM
IC50 (WI38): 52.3 µM
IC50 (SKUT-1): 6.1 µM

SMILES: CC(Cc1c[nH]c2ccccc12)NS(=O)(=O)c1cc([N+](=O)[O-])c(Cl)s1 (centres unmarked) [Compound 49, 5-Chloro-4-nitrothiophene-2-sulfonic acid [2-(1H-indol-3-yl)-1-methylethyl]amide]
Fold induction of luciferase activity (p53): 117 fold
Concentration (test compound concentration at which the p53 induction was maximal) (p53): 5.5 µM
IC50 [3]: 36.3 ± 2.9 µM
IC50 (HDM2; [5]): 46.3 ± 4 µM
IC50 (HDM2; [6]): 46.3 ± 4 µM
cell rounding [4]: even more rapid cell rounding
IC50 (SJSA-1; SJSA-1, 72-h MTT, Table 1, read-out: IC50 Anti-proliferative effect on cell line SJSA-1): 2 ± 0.2 µM
IC50 (H1299; [7]): 1.5 ± 0.4 µM
IC50 (AGS; [8]): 2.2 ± 2.3 µM
